Source: US20150125407A1, “Vesicular Formulations, Uses and Methods” (Sequessome Technology Holdings Ltd, priority 2012, published 2015)

System: acne vulgaris
Test: Use example 1: topical roaccutane alone or layered with Rossoseq gel in teenage acne vulgaris
Settings: topically applied roaccutane alone; person

## CC1=C(/C=C/C(C)=C/C=C/C(C)=C\C(=O)O)C(C)(C)CCC1 [roaccutane]
  effect on acne vulgaris: did not have a significant effect
